Test results reported in paper PMC7997579, “Synthetic Lethality in Pancreatic Cancer: Discovery of a New RAD51-BRCA2 Small Molecule Disruptor That Inhibits Homologous Recombination and Synergizes with Olaparib” (Journal of Medicinal Chemistry, 2020).
≈ marks a conversion by molar mass, not a printed value. Where two headings read alike, the source gives them in different places.

Tests used:
[1] = tested on: homologous recombination in BxPC3 cells; experiment: Homologous recombination assay (two-plasmid recombination, real-time PCR); type: cell-based, human; conditions: Homo sapiens, BXPC-3
From the text: (§1) Our working hypothesis is that compounds disrupting RAD51-BRCA2 interaction should affect HR repair and increase the efficacy of PARPi in treating breast, ovarian, and pancreatic cancer. For its clinical relevance, pancreatic adenocarcinoma was selected as our final model for cell-based experiments, and BxPC3 cells were selected for a straightforward comparison with the previously reported triazole derivatives.[30],[31] BxPC3 is derived from a human adenocarcinoma that expresses fully functional BRCA2.[38] As shown in Table 2 and according to the rationale of our hypothesis, our preliminary screening consisted of verifying the efficacy of compounds in inhibiting cell HR and/or in increasing the antiproliferative effect of olaparib. […] HR activity was assessed by evaluating the recombination rate between two transfected plasmids, using a commercially available assay. […] As for the emissucinic acid-containing compounds (4d, 12d, 18d, 20d–23d, 30d, 31d), one of the reasons for their lower potency in cells might be the general poor permeability, likely related to the ionizable acid moiety. […] We then characterized 35d in additional biophysical and cell-based experiments.
Homologous recombination (HR) was assessed by using a commercially available assay (Norgen). This assay is based on cell transfection with two plasmids that, upon cell entry, recombine. The efficiency of HR can be assessed by real-time PCR, using primer mixtures included in the assay kit. Different primer mixtures allow one to discriminate between the original plasmid backbones and their recombination product.
BxPC3 cells (2 × 10^5 per well) were seeded in a 24-well plate and allowed to adhere overnight. Co-transfection with the two plasmids was performed in Lipofectamine 2000 (Invitrogen) according to the manufacturer’s instructions. During transfection (5 h), cells were exposed to different doses of RAD51-BRCA2 disruptors, dissolved in RPMI in the presence of 0.6% DMSO. After washing with PBS, cells were harvested, and DNA was isolated using Illustra Tissue and Cell Genomic Prep Mini Spin kit (GE Healthcare). Sample concentration was measured using an ONDA Nano Genius photometer. The efficiency of HR was assessed by real-time PCR, using 25 ng of template, the primer mixtures included in the assay kit and following the protocol indicated by the manufacturer. Data analysis was based on the ΔΔCt method: [recombination product/backbone plasmids]^treated versus [recombination product/backbone plasmids]^control.

[2] = tested on: BxPC3 cells; experiment: Cell viability assay (CellTiter-Glo), association with olaparib; type: cell-based, human
From the text: as §1
(§2) Cell viability was assessed with the CellTiter-Glo luminescent cell viability assay from Promega. For this experiment, 1 × 10^4 cells in 200 μL of culture medium were seeded into each well of a 96-multiwell white body plate and allowed to adhere overnight. After 72 h incubation in the presence of olaparib (10 μM) and the RAD51-BRCA2 disruptors alone or in combination, the plate was allowed to equilibrate at room temperature for 30 min and the CellTiter-Glo reactive was directly added to each well. The plate was kept on a shaker for 10 min to induce cell lysis, and its luminescence was measured with a Fluoroskan Ascent FL reader (Labsystems).

[3] = tested on: RAD51 in BxPC-3 nuclei; experiment: Immunofluorescence of RAD51 nuclear localization after cisplatin; type: cell-based, human; conditions: BxPC-3, 50 μM cisplatin in association with 20 μM 35d
Description: Immunofluorescence was used for studying RAD51 nuclear translocation and for evaluating DNA damage through the detection of γH2AX nuclear foci. To visualize RAD51 in cell nuclei, BxPC-3 cells were seeded on glass coverslips placed in a 6-well culture plate (2 × 10^5 cells/well) and allowed to adhere overnight. Cultures were then preincubated with 20 μM 35d for 1 h and subsequently exposed to 50 μM cisplatin for an additional 1.5 h. Medium was removed, and cells were maintained in the presence of 20 μM 35d for 4 h. After this time, cultures growing on coverslips were fixed in PBS containing 1% formalin for 20 min, permeabilized in 70% ethanol, air-dried, and washed twice with PBS. Samples were incubated in 10% bovine serum albumin (BSA) in PBS for 30 min at 37 °C and subsequently exposed to an anti-RAD51 mouse monoclonal antibody (Santa Cruz Biotechnology, 1:1000 in 5% BSA/PBS) overnight at 4 °C. After washing, coverslips were incubated with an anti-mouse FITC-conjugated secondary antibody (1:1000 in 1% BSA/PBS) for 1 h at 37 °C, washed, air-dried, and mounted with a solution of DAPI (2 μg/mL) and DABCO.

[4] = tested on: BxPC3 cells; experiment: Micronuclei visualization; type: cell-based, human; conditions: BxPC3, 72 h, 20 μM 35d + 10 μM olaparib vs single agents; p <0.01
Description: For micronuclei visualization, cells were grown on coverslips placed in a 6-multiwell plate (5 × 10^5 cells/well). After a 72 h treatment with olaparib (10 μM) or 35d (20 μM) given alone or in combination, wells were rapidly washed with PBS and then fixed for 10 min with cold methanol. Coverslips were then air-dried and mounted on glass slides using a solution of DAPI (5 μg/mL)/DABCO. Images were acquired on a Nikon fluorescent microscope equipped with filters for DAPI. […] The percentage of cells bearing micronuclei was estimated by two independent observers, by analyzing 100–250 cells for each treatment sample.

[5] = tested on: Capan-1 cells; experiment: Cell viability assay (antiproliferative effect), association with olaparib; type: cell-based, human
Description: (§3) Finally, the antiproliferative effect of the 35d/olaparib combination was also studied on the HR-defective Capan-1 culture and on a non-neoplastic cell line derived from human kidney (HK-2). Moreover, to evaluate the antineoplastic potency of the 35d/olaparib association, we also calculated the combination index (CI) of the two compounds, using the procedure previously described[30],[31] (Figure 9).
as §2

[6] = tested on: HK-2; experiment: as above; type: cell-based, human; conditions: HK-2, 72 h, 10 μM olaparib; two-way ANOVA
Description: as §3, §2

[7] = Solubility (as observed in cell culture media / stated); type: physicochemical

With CCC(=O)N1N=C(c2c(-c3ccccc3)c3cc(Cl)ccc3[nH]c2=O)CC1c1ccc(OC)cc1 (stereo not shown) [Compound 35d, 6-Chloro-3-(5-(4-methoxyphenyl)-1-propionyl-4,5-dihydro-1H-pyrazol-3-yl)-4-phenylquinolin-2(1H)-one] the inhibition at 10 µM ([1]; 10 μM, BxPC3, 5 h during plasmid transfection) was about 10%, the inhibition at 20 µM ([1]; 20 μM, BxPC3, 5 h during plasmid transfection) was 54% and the EC50 ([1]; BxPC3, 5 h, tested up to 40 μM, polynomial regression, read-out: EC50 (dose causing a 50% inhibition of HR)) was 18.4 µM. The “combination index (CI) with olaparib” value ([2]; BxPC3, 10 μM 35d + 10 μM olaparib) was about 1, the olaparib association ([2]; BxPC3, at 15 μM) was “olaparib association = present at 15 μM” and the “combination index (CI) with olaparib” value ([2]; BxPC-3, 20 μM 35d + 10 μM olaparib, CI < 0.8 = synergism) was under 0.8. For the same compound, the “RAD51 nuclear foci in cisplatin-treated cells” value [3] was “significantly reduced”, the cells bearing micronuclei [4] was “markedly more frequent” and the “antiproliferative effect of 35d/olaparib” value ([5]; Capan-1, 72 h, 10 μM olaparib, two-way ANOVA) was “significantly increased antiproliferative effects”. For the same compound, the “combination index (CI) with olaparib” value ([5]; Capan-1, all tested doses of 35d + 10 μM olaparib) was about 1, the “antiproliferative effect of 35d/olaparib vs olaparib” value [6] was “no dose of 35d appeared to significantly increase” and the solubility ([7]; HR assay medium (RPMI, 0.6% DMSO), kinetic from dmso stock, read-out: upper limit in terms of solubility) was 40 µM (≈ 19.4 µg/mL). The solubility ([7]; stated in conclusions) was “low solubility”.
